Data on 18 molecules can be found in PubChem BioAssay (NCI).

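Assay format: 96-well plates, 48-hour exposure. At the TGI there is no net growth.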 Residues, ends and D or L forms follow the SMILES beside them. *: point of attachment. Boc = CC(C)(C)OC(=O)*; OBn = c1ccc(CO*)cc1 A value given as a limit tells only on which side of the number the result lay.

Among the test systems are A498 renal; A549 NSCLC; ACHN renal; BT-549 breast; M14 melanoma; MDA-N; NCI-H226 lung; NCI-H23 lung; OVCAR-4 ovarian; PC-3 prostate; SF-268 CNS; TK-10 renal.
Common to all, as to assay: NCI anticancer screen, dose series, 48 h

Regarding `CO[C@@H]1C[C@H]2N3CC[C@@]2(c2cc4c(cc2C3)OCO4)[C@H]2O[C@@H]12`, the TGI with A498 renal, in the assay with A549 NSCLC, with ACHN renal, with BT-549 breast, in the assay with M14 melanoma and with MDA-N was above 100 µM in each case. Besides, the TGI is 4.59 µM in the assay with NCI-H226 lung; above 100 µM in the assay with NCI-H23 lung; above 100 µM with OVCAR-4 ovarian; above 100 µM in the assay with PC-3 prostate; above 100 µM in the assay with SF-268 CNS; above 100 µM with TK-10 renal.
`CC(C)CC(NC(=O)OC(C)(C)C)C(=O)N1CCCC1C(=O)OCc1ccccc1` (stereo not drawn) (Boc-Leu-Pro-OBn; configuration not given here): the TGI in the assay on A498 renal, in the assay on A549 NSCLC, with ACHN renal, in the assay on BT-549 breast, with M14 melanoma and in the assay on MDA-N was above 100 µM each time. The TGI with NCI-H226 lung, in the assay with NCI-H23 lung, with OVCAR-4 ovarian, with PC-3 prostate, in the assay with SF-268 CNS and with TK-10 renal was above 100 µM throughout.
Take `CC(C)(C)OC(=O)c1ccc(NCC2=CC(=O)C=CC2=O)cc1`: the TGI in the assay on A498 renal was 30.9 µM; in the assay with A549 NSCLC, 40.1 µM; in the assay with ACHN renal, 22.2 µM; in the assay on BT-549 breast, 29.5 µM; with M14 melanoma it was 17.6 µM; with MDA-N it was 25.3 µM. Further, the TGI was determined as 40.5 µM in the assay with NCI-H226 lung; 22.2 µM in the assay on NCI-H23 lung; 22 µM in the assay on OVCAR-4 ovarian; 24.4 µM with PC-3 prostate; 24.3 µM in the assay on SF-268 CNS; 21.3 µM in the assay on TK-10 renal.
Consider `CC(C)(C)c1cc(OCc2nnc3sc(=S)[nH]n23)c(Cl)cc1OCc1nnc2sc(=S)[nH]n12`, for which the TGI in the assay with A498 renal is 88.7 µM; with A549 NSCLC it was above 100 µM; in the assay on ACHN renal, 76.8 µM; in the assay on BT-549 breast, above 100 µM; with M14 melanoma, 75.7 µM; with MDA-N it was 40.6 µM. The TGI with NCI-H226 lung was above 100 µM; in the assay on NCI-H23 lung, 95.5 µM; with OVCAR-4 ovarian, 80.6 µM; in the assay with PC-3 prostate it was above 100 µM; in the assay on SF-268 CNS, above 100 µM; in the assay on TK-10 renal, 99.8 µM.
Turning to `O=C1NC(=O)/C(=C/c2ccc(S(=O)(=O)N/N=C\C(O)C(O)C(O)C(O)CO)cc2)N1` (stereo unspecified), the TGI in the assay on A498 renal, in the assay on A549 NSCLC, with ACHN renal, in the assay with BT-549 breast, in the assay on M14 melanoma and in the assay with MDA-N was above 100 µM in each case. Also, the TGI in the assay with NCI-H226 lung, in the assay with NCI-H23 lung, in the assay on OVCAR-4 ovarian, in the assay with PC-3 prostate, in the assay on SF-268 CNS and with TK-10 renal was above 100 µM throughout.
For the molecule `CC1=CC(C)C(C)N(CCNS(=O)(=O)c2ccc(C)cc2)c2ccccc21` (stereo unspecified), the TGI was 19.2 µM in the assay with A498 renal; above 31.6 µM in the assay with A549 NSCLC; 29.2 µM with ACHN renal; 31.7 µM with BT-549 breast; 17.5 µM in the assay with M14 melanoma; 18.8 µM in the assay on MDA-N. Further, the TGI in the assay on NCI-H226 lung is 17.8 µM; in the assay on NCI-H23 lung it was 26.9 µM; in the assay with OVCAR-4 ovarian it was 22.3 µM; in the assay with PC-3 prostate, 30.5 µM; in the assay with SF-268 CNS, 19.6 µM; in the assay with TK-10 renal, above 82.8 µM.
`COc1cc(Nc2nnc3n2S(=O)(=O)c2cc(C)c(Cl)cc2S3)cc(OC)c1`: the TGI in the assay with A498 renal was 85.8 µM; in the assay on A549 NSCLC, 30 µM; in the assay on ACHN renal, 16.7 µM; in the assay on BT-549 breast, 22.1 µM; in the assay with M14 melanoma it was above 100 µM; in the assay with MDA-N, above 100 µM. Moreover, the TGI with NCI-H226 lung turned out to be 55.1 µM; in the assay on NCI-H23 lung, 43.7 µM; in the assay with OVCAR-4 ovarian, 24.4 µM; with PC-3 prostate it was 47 µM; in the assay with SF-268 CNS it was 50.7 µM; in the assay on TK-10 renal, 81.3 µM.
For `O=C(O)C1(Cc2ccc3c(c2)CCC3)Cc2ccccc2C1`, the TGI in the assay with A498 renal, with A549 NSCLC, with ACHN renal, with BT-549 breast, with M14 melanoma and in the assay with MDA-N was above 100 µM throughout. Besides, the TGI in the assay with NCI-H226 lung, with NCI-H23 lung, with OVCAR-4 ovarian, in the assay with PC-3 prostate, in the assay on SF-268 CNS and in the assay with TK-10 renal was above 100 µM in each case.
For `CCN(CC)/[N+]([O-])=N/OCOC(C)=O`, the TGI in the assay on A498 renal, in the assay on A549 NSCLC, in the assay on ACHN renal, with BT-549 breast, with M14 melanoma and with MDA-N was above 100 µM each time. For the same molecule, the TGI in the assay with NCI-H226 lung, in the assay with NCI-H23 lung, in the assay with OVCAR-4 ovarian, in the assay on PC-3 prostate, in the assay on SF-268 CNS and with TK-10 renal was above 100 µM each time.
For `N#Cc1c(O)cc(=O)n2c1[nH]c1ccccc12`, the TGI in the assay with A498 renal, with A549 NSCLC, in the assay with ACHN renal, in the assay with BT-549 breast, in the assay on M14 melanoma and with MDA-N was above 100 µM each time. The TGI in the assay on NCI-H226 lung, in the assay on NCI-H23 lung, with OVCAR-4 ovarian, with PC-3 prostate, in the assay with SF-268 CNS and with TK-10 renal was above 100 µM throughout.
With `CC(C)(C)OC/C=C1\C(=O)O[C@H]2C[C@@H](O[Si](C)(C)C(C)(C)C)C[C@@H]12`, the TGI in the assay on A498 renal, with A549 NSCLC, in the assay on ACHN renal, in the assay with BT-549 breast, in the assay on M14 melanoma and with MDA-N was above 100 µM each time. Further, the TGI in the assay on NCI-H226 lung, with NCI-H23 lung, with OVCAR-4 ovarian, in the assay with PC-3 prostate, with SF-268 CNS and with TK-10 renal was above 100 µM throughout.
In the case of `CCCCCCOc1ccc(C(=O)N(C)O)cc1`, the TGI was above 100 µM with A498 renal; 56.6 µM with A549 NSCLC; 30.3 µM in the assay on ACHN renal; above 100 µM in the assay with BT-549 breast; 39.3 µM in the assay on M14 melanoma; above 100 µM in the assay with MDA-N. Besides, the TGI in the assay with NCI-H226 lung is 59.5 µM; with NCI-H23 lung, 65.6 µM; with OVCAR-4 ovarian it was above 100 µM; in the assay with PC-3 prostate, 98 µM; with SF-268 CNS, 55.7 µM; with TK-10 renal it was above 100 µM.
Take `COC(=O)[C@@H](Cc1ccccc1)N1O[C@]12CCCC[C@@H]2NC(=O)OC(C)(C)C` (stereo partly specified): the TGI was above 100 µM in the assay with A498 renal; above 100 µM with A549 NSCLC; 32.5 µM in the assay on ACHN renal; 34.8 µM with BT-549 breast; 50.9 µM with M14 melanoma; 39.1 µM with MDA-N. Moreover, the TGI with NCI-H226 lung was above 100 µM; in the assay on NCI-H23 lung, 51.8 µM; with OVCAR-4 ovarian it was above 100 µM; in the assay with PC-3 prostate, 84.2 µM; in the assay with SF-268 CNS it was 34.9 µM; in the assay on TK-10 renal, 49 µM.
For `CN(C)C=NCCN1CCOCC1`, the TGI in the assay on A498 renal, in the assay on A549 NSCLC, in the assay with ACHN renal, with BT-549 breast, in the assay on M14 melanoma and in the assay with MDA-N was above 100 µM throughout. The TGI in the assay with NCI-H226 lung, with NCI-H23 lung, in the assay with OVCAR-4 ovarian, with PC-3 prostate, in the assay with SF-268 CNS and in the assay with TK-10 renal was above 100 µM each time.
Consider `C=CC(Br)(CBr)CCC(Br)C(C)(C)Cl` (stereo unspecified), for which the TGI worked out at 9.46 µM in the assay on A498 renal; 28.6 µM with A549 NSCLC; 6.07 µM in the assay with ACHN renal; 21.8 µM in the assay on BT-549 breast; 14.6 µM in the assay on M14 melanoma; 8.34 µM in the assay with MDA-N. For the same molecule, the TGI in the assay on NCI-H226 lung stood at 52.9 µM; in the assay with NCI-H23 lung, 12.9 µM; in the assay with OVCAR-4 ovarian, 10.4 µM; with PC-3 prostate, 9.1 µM; in the assay on SF-268 CNS it was 4.51 µM; with TK-10 renal, 6.33 µM.
In the case of `N#Cc1c(O)c(N=Nc2ccc(Cl)cc2)c(=O)n2c1[nH]c1ccccc12`, the TGI with A498 renal, with A549 NSCLC, with ACHN renal, in the assay on BT-549 breast, in the assay with M14 melanoma and in the assay with MDA-N was above 100 µM in each case. Moreover, the TGI in the assay on NCI-H226 lung, in the assay with NCI-H23 lung, in the assay with OVCAR-4 ovarian, in the assay on PC-3 prostate, in the assay on SF-268 CNS and in the assay on TK-10 renal was above 100 µM each time.
For the molecule `CCOC(=O)c1c(-c2ccc(Br)cc2)ccn1C`, the TGI with A498 renal, in the assay on A549 NSCLC, with ACHN renal, with BT-549 breast, in the assay on M14 melanoma and in the assay with MDA-N was above 10 µM each time. Besides, the TGI with NCI-H226 lung, with NCI-H23 lung, in the assay on OVCAR-4 ovarian, in the assay with PC-3 prostate, in the assay with SF-268 CNS and with TK-10 renal was above 10 µM in each case.
`O=C(N/N=C/c1ccccc1O)c1ccccc1Nc1ccccc1C(=O)N/N=C/c1ccccc1O`: the TGI in the assay with A498 renal is above 100 µM; in the assay with A549 NSCLC, above 100 µM; in the assay on ACHN renal, above 100 µM; with BT-549 breast, above 100 µM; with M14 melanoma, 6.35 µM; with MDA-N, above 100 µM. For the same molecule, the TGI was 3.79 µM in the assay on NCI-H226 lung; above 100 µM in the assay on NCI-H23 lung; above 100 µM with OVCAR-4 ovarian; above 100 µM in the assay with PC-3 prostate; 2.28 µM in the assay with SF-268 CNS; above 100 µM in the assay with TK-10 renal.
